Measured values as given in PubChem BioAssay (NCI).
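Here, GI50 denotes the concentration required for 50% inhibition of growth. At the TGI there is no net growth.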

Tests used:
Assay in all cases: DTP human tumour cell line panel, 384-well format
786-0 renal = test system: 786-0 renal
A498 renal = test system: A498 renal
A549 NSCLC = test system: A549 NSCLC
ACHN renal = test system: ACHN renal
BT-549 breast = test system: BT-549 breast
CAKI-1 renal = test system: CAKI-1 renal
CCRF-CEM leukemia = test system: CCRF-CEM leukemia
COLO 205 colon = test system: COLO 205 colon
DU-145 prostate = test system: DU-145 prostate
EKVX NSCLC = test system: EKVX NSCLC
HCC-2998 colon = test system: HCC-2998 colon
HCT-116 colon = test system: HCT-116 colon
HCT-15 colon = test system: HCT-15 colon
HL-60(TB) leukemia = test system: HL-60(TB) leukemia
HOP-62 NSCLC = test system: HOP-62 NSCLC
HOP-92 NSCLC = test system: HOP-92 NSCLC
HS 578T breast = test system: HS 578T breast
HT29 colon = test system: HT29 colon
IGROV1 ovarian = test system: IGROV1 ovarian
K-562 leukemia = test system: K-562 leukemia
KM12 colon = test system: KM12 colon
LOX IMVI melanoma = test system: LOX IMVI melanoma
M14 melanoma = test system: M14 melanoma
MALME-3M melanoma = test system: MALME-3M melanoma
MCF7 breast = test system: MCF7 breast
MDA-MB-435 melanoma = test system: MDA-MB-435 melanoma
MDA-MB-468 breast = test system: MDA-MB-468 breast
MOLT-4 leukemia = test system: MOLT-4 leukemia
NCI-H226 lung = test system: NCI-H226 lung
NCI-H23 lung = test system: NCI-H23 lung
NCI-H322M lung = test system: NCI-H322M lung
NCI-H460 NSCLC = test system: NCI-H460 NSCLC
NCI-H522 lung = test system: NCI-H522 lung
NCI/ADR-RES ovarian = test system: NCI/ADR-RES ovarian
OVCAR-3 ovarian = test system: OVCAR-3 ovarian
OVCAR-4 ovarian = test system: OVCAR-4 ovarian
OVCAR-8 ovarian = test system: OVCAR-8 ovarian
PC-3 prostate = test system: PC-3 prostate
RPMI-8226 leukemia = test system: RPMI-8226 leukemia
RXF 393 renal = test system: RXF 393 renal
SF-268 CNS = test system: SF-268 CNS
SF-295 CNS = test system: SF-295 CNS
SF-539 CNS = test system: SF-539 CNS
SK-MEL-2 melanoma = test system: SK-MEL-2 melanoma
SK-MEL-28 melanoma = test system: SK-MEL-28 melanoma
SK-MEL-5 melanoma = test system: SK-MEL-5 melanoma
SK-OV-3 ovarian = test system: SK-OV-3 ovarian
SN12C renal = test system: SN12C renal
SNB-19 CNS = test system: SNB-19 CNS
SNB-75 CNS = test system: SNB-75 CNS
SW-620 colon = test system: SW-620 colon
TK-10 renal = test system: TK-10 renal
U251 glioblastoma = test system: U251 glioblastoma
UACC-257 melanoma = test system: UACC-257 melanoma
UACC-62 melanoma = test system: UACC-62 melanoma

With `O=C(Nc1cccc(Br)c1)Oc1ccc(Cl)c2cccnc12` the GI50 ([…]-0 renal) was 14.3 µM, the TGI (786-0 renal) was 27.5 µM and the GI50 (A498 renal) was 4.23 µM. For the same compound, the TGI (A498 renal) was 13.1 µM, the GI50 (A549 NSCLC) was 11 µM and the TGI (A549 NSCLC) was 23.8 µM. The GI50 (ACHN renal) was 3.98 µM, the TGI (ACHN renal) was 15 µM and the GI50 (BT-549 breast) was 3.75 µM. For the same compound, the TGI (BT-549 breast) was 15.4 µM, the GI50 (CAKI-1 renal) was 2.61 µM and the TGI (CAKI-1 renal) was 6.82 µM. The GI50 (CCRF-CEM leukemia) was 1.6 µM, the TGI (CCRF-CEM leukemia) was 3.01 µM and the GI50 (COLO 205 colon) was 4.37 µM. It also gave a TGI (COLO 205 colon) of 12.1 µM, a GI50 (DU-145 prostate) of 4.76 µM and a TGI (DU-145 prostate) of 19.7 µM. It also gave a GI50 (EKVX NSCLC) of 2.6 µM, a TGI (EKVX NSCLC) of 5.8 µM and a GI50 (HCC-2998 colon) of 15.4 µM. It also gave a TGI (HCC-2998 colon) of 28.9 µM, a GI50 (HCT-116 colon) of 2.02 µM and a TGI (HCT-116 colon) of 3.77 µM. The GI50 (HCT-15 colon) was 3.74 µM, the TGI (HCT-15 colon) was 10.6 µM and the GI50 (HL-60(TB) leukemia) was 0.42 µM. It also gave a TGI (HL-60(TB) leukemia) of 1.42 µM, a GI50 (HOP-62 NSCLC) of 3.43 µM and a TGI (HOP-62 NSCLC) of 6.55 µM. It also gave a GI50 (HOP-92 NSCLC) of 3.59 µM, a TGI (HOP-92 NSCLC) of 9.38 µM and a GI50 (HS 578T breast) of 5.86 µM. The TGI (HS 578T breast) was 18.9 µM, the GI50 (HT29 colon) was 14.4 µM and the TGI (HT29 colon) was 27.6 µM. For the same compound, the GI50 (IGROV1 ovarian) was 1.49 µM, the TGI (IGROV1 ovarian) was 3.35 µM and the GI50 (K-562 leukemia) was 13.5 µM. The TGI (K-562 leukemia) was 27 µM, the GI50 (KM12 colon) was 7.59 µM and the TGI (KM12 colon) was 19.7 µM. For the same compound, the GI50 (LOX IMVI melanoma) was 3.36 µM, the TGI (LOX IMVI melanoma) was 12.3 µM and the GI50 (M14 melanoma) was 2.68 µM. For the same compound, the TGI (M14 melanoma) was 6.58 µM, the GI50 (MALME-3M melanoma) was 2.79 µM and the TGI (MALME-3M melanoma) was 7.77 µM. The GI50 (MCF7 breast) was 2.04 µM, the TGI (MCF7 breast) was 4.28 µM and the GI50 (MDA-MB-435 melanoma) was 5.71 µM. For the same compound, the TGI (MDA-MB-435 melanoma) was 19.1 µM, the GI50 (MDA-MB-468 breast) was 2.54 µM and the TGI (MDA-MB-468 breast) was 4.16 µM. The GI50 (MOLT-4 leukemia) was 1.73 µM, the TGI (MOLT-4 leukemia) was 3.16 µM and the GI50 (NCI-H226 lung) was 1.62 µM. It also gave a TGI (NCI-H226 lung) of 3.12 µM, a GI50 (NCI-H23 lung) of 1.98 µM and a TGI (NCI-H23 lung) of 3.91 µM. The GI50 (NCI-H322M lung) was 15.3 µM, the TGI (NCI-H322M lung) was 31.4 µM and the GI50 (NCI-H460 NSCLC) was 3.22 µM. For the same compound, the TGI (NCI-H460 NSCLC) was 9.1 µM, the GI50 (NCI-H522 lung) was 2.01 µM and the TGI (NCI-H522 lung) was 4.04 µM. It also gave a GI50 (NCI/ADR-RES ovarian) of 2.57 µM, a TGI (NCI/ADR-RES ovarian) of 4.9 µM and a GI50 (OVCAR-3 ovarian) of 1.91 µM. The TGI (OVCAR-3 ovarian) was 3.64 µM, the GI50 (OVCAR-4 ovarian) was 4.88 µM and the TGI (OVCAR-4 ovarian) was 15.9 µM. For the same compound, the GI50 (OVCAR-8 ovarian) was 2.29 µM, the TGI (OVCAR-8 ovarian) was 4.86 µM and the GI50 (PC-3 prostate) was 2.37 µM. The TGI (PC-3 prostate) was 5.64 µM, the GI50 (RPMI-8226 leukemia) was 1.65 µM and the TGI (RPMI-8226 leukemia) was 3.08 µM. The GI50 (RXF 393 renal) was 2.63 µM, the TGI (RXF 393 renal) was 9.07 µM and the GI50 (SF-268 CNS) was 3.33 µM. The TGI (SF-268 CNS) was 12.1 µM, the GI50 (SF-295 CNS) was 4.71 µM and the TGI (SF-295 CNS) was 16.3 µM. For the same compound, the GI50 (SF-539 CNS) was 3.26 µM, the TGI (SF-539 CNS) was 10.4 µM and the GI50 (SK-MEL-2 melanoma) was 2.39 µM. It also gave a TGI (SK-MEL-2 melanoma) of 4.87 µM, a GI50 (SK-MEL-28 melanoma) of 3.5 µM and a TGI (SK-MEL-28 melanoma) of 9.22 µM. It also gave a GI50 (SK-MEL-5 melanoma) of 2.01 µM, a TGI (SK-MEL-5 melanoma) of 4.53 µM and a GI50 (SK-OV-3 ovarian) of 15.4 µM. The TGI (SK-OV-3 ovarian) was 28.9 µM, the GI50 (SN12C renal) was 3.56 µM and the TGI (SN12C renal) was 14.9 µM. It also gave a GI50 (SNB-19 CNS) of 4.2 µM, a TGI (SNB-19 CNS) of 15.4 µM and a GI50 (SNB-75 CNS) of 2.96 µM. It also gave a TGI (SNB-75 CNS) of 8.36 µM, a GI50 (SW-620 colon) of 4.45 µM and a TGI (SW-620 colon) of 13.8 µM. It also gave a GI50 (TK-10 renal) of 18.5 µM, a TGI (TK-10 renal) of 47.4 µM and a GI50 (U251 glioblastoma) of 3.9 µM. For the same compound, the TGI (U251 glioblastoma) was 11.2 µM, the GI50 (UACC-257 melanoma) was 2.6 µM and the TGI (UACC-257 melanoma) was 4.37 µM. The GI50 (UACC-62 melanoma) was 3.73 µM and the TGI (UACC-62 melanoma) was 10.8 µM.
